PubChem BioAssay AID248 (DTP/NCI, 2004)
Toxic doses and inconclusive results are not listed. No stated cut-off is given here; in the data, active means T/C of 150% or more; inactive means T/C below 125%.

System: L1210 leukemia ip in BDF1 mice, survival T/C
Assay: NCI In Vivo Anticancer Drug Screen. Data for tumor model L1210 Leukemia (intraperitoneal) in B6D2F1 (BDF1) mice
Conditions: endpoint: mean survival time, higher = longer survival
Method in brief: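 Read-out is survival time, reported as the treated-group measurement over the vehicle-control measurement.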

[1] = dose: 100.0 mg/kg/injection, schedule: Q04DX003 (ip), vehicle: saline with Tween-80
[2] = dose: 200.0 mg/kg/injection, schedule: Q04DX003 (ip), vehicle: saline with Tween-80
[3] = dose: 400.0 mg/kg/injection, schedule: Q04DX003 (ip), vehicle: saline with Tween-80
[4] = dose: 50.0 mg/kg/injection, schedule: Q01DX009 (ip), vehicle: saline
[5] = dose: 100.0 mg/kg/injection, schedule: Q01DX009 (ip), vehicle: saline with Tween-80
[6] = dose: 200.0 mg/kg/injection, schedule: Q01DX009 (ip), vehicle: saline with Tween-80

Measured: T/C

CCCCC(CC)CN(CC(CC)CCCC)c1nc(Cl)nc(N(CC(CC)CCCC)CC(CC)CCCC)n1 (stereo not drawn)
inactive: dose: 25.6 mg/kg/injection, schedule: Q04DX002 (ip), vehicle: saline with Tween-80 91 % of control | dose: 64.0 mg/kg/injection, schedule: Q04DX002 (ip), vehicle: saline with Tween-80 97 % of control | [1] 92 % of control | dose: 160.0 mg/kg/injection, schedule: Q04DX002 (ip), vehicle: saline with Tween-80 91 % of control | [2] 94 % of control | dose: 400.0 mg/kg/injection, schedule: Q04DX002 (ip), vehicle: saline with Tween-80 91 % of control | [3] 92 % of control

O=C1CC(N2C(=O)C3C4C=CC(CC4)C3C2=O)C(=O)N1 (stereo not drawn)
inactive: dose: 100.0 mg/kg/injection, schedule: Q04DX003 (ip), vehicle: saline 97 % of control | dose: 200.0 mg/kg/injection, schedule: Q04DX003 (ip), vehicle: saline 97 % of control | dose: 400.0 mg/kg/injection, schedule: Q04DX003 (ip), vehicle: saline 97 % of control

CN(C)C=Nc1c2c(C#N)cn(C3OC(CO)C(O)C3O)c2nc[n+]1[O-] (stereo not drawn)
inactive: dose: 12.5 mg/kg/injection, schedule: Q01DX005 (ip), vehicle: saline 97 % of control | dose: 12.5 mg/kg/injection, schedule: Q01DX009 (ip), vehicle: saline 104 % of control | dose: 25.0 mg/kg/injection, schedule: Q01DX005 (ip), vehicle: saline 102 % of control | dose: 25.0 mg/kg/injection, schedule: Q01DX009 (ip), vehicle: saline 104 % of control | dose: 50.0 mg/kg/injection, schedule: Q01DX005 (ip), vehicle: saline 105 % of control | [4] 109 % of control

CCOC(=O)/C(N=O)=C(\O)c1ccc2ccccc2n1
inactive: dose: 25.0 mg/kg/injection, schedule: Q01DX009 (ip), vehicle: water 115 % of control | dose: 50.0 mg/kg/injection, schedule: Q01DX009 (ip), vehicle: water 101 % of control | dose: 100.0 mg/kg/injection, schedule: Q01DX009 (ip), vehicle: water 108 % of control | dose: 200.0 mg/kg/injection, schedule: Q01DX009 (ip), vehicle: water 89 % of control | dose: 400.0 mg/kg/injection, schedule: Q01DX009 (ip), vehicle: water 94 % of control

Cc1ccc(Cl)cc1NC(=O)c1c(Br)c(Br)c(Br)c(Br)c1C(=O)O
inactive: [5] 105 % of control | [1] 97 % of control | [6] 105 % of control | [2] 101 % of control | dose: 400.0 mg/kg/injection, schedule: Q01DX009 (ip), vehicle: saline with Tween-80 113 % of control | [3] 101 % of control

CN(CC(C)(C)C=O)CC(C)(C)C=O
inactive: dose: 100.0 mg/kg/injection, schedule: Q04DX002 (ip), vehicle: saline 112 % of control | dose: 200.0 mg/kg/injection, schedule: Q04DX002 (ip), vehicle: saline 101 % of control | dose: 400.0 mg/kg/injection, schedule: Q04DX002 (ip), vehicle: saline 108 % of control

Cn1nc(C#N)c(C#N)c1NC(=O)C(C)(C)C
inactive: dose: 50.0 mg/kg/injection, schedule: Q04DX002 (ip), vehicle: saline with Tween-80 92 % of control | dose: 100.0 mg/kg/injection, schedule: Q04DX002 (ip), vehicle: saline with Tween-80 103 % of control | dose: 200.0 mg/kg/injection, schedule: Q04DX002 (ip), vehicle: saline with Tween-80 106 % of control

O=c1[nH]c(=O)n(Cc2ccccc2)cc1Cc1ccccc1
inactive: [1] 106 % of control | [2] 98 % of control | [3] 101 % of control

O=[N+]([O-])c1cc(CCl)ccc1CCl
inactive: dose: 50.0 mg/kg/injection, schedule: Q04DX003 (ip), vehicle: Klucel (hydroxypropylcellulose) (HPC) 86 % of control | dose: 100.0 mg/kg/injection, schedule: Q04DX003 (ip), vehicle: Klucel (hydroxypropylcellulose) (HPC) 92 % of control | dose: 200.0 mg/kg/injection, schedule: Q04DX003 (ip), vehicle: Klucel (hydroxypropylcellulose) (HPC) 98 % of control

CCOC(=O)C[n+]1ccccc1
inactive: dose: 50.0 mg/kg/injection, schedule: Q01DX009 (ip), vehicle: saline with Tween-80 98 % of control | [4] 96 % of control | [5] 93 % of control | dose: 100.0 mg/kg/injection, schedule: Q01DX009 (ip), vehicle: saline 102 % of control | [6] 91 % of control

CNC(=O)NC(C)(C)CCCCC(C)(C)NC(=O)NC
inactive: dose: 50.0 mg/kg/injection, schedule: Q01DX001 (ip), vehicle: saline 104 % of control | dose: 100.0 mg/kg/injection, schedule: Q01DX001 (ip), vehicle: saline 102 % of control | dose: 200.0 mg/kg/injection, schedule: Q01DX001 (ip), vehicle: saline 93 % of control | dose: 400.0 mg/kg/injection, schedule: Q01DX001 (ip), vehicle: saline 96 % of control
